According to patent publication US20230203058A1, “MACROCYCLIC DIAMINE DERIVATIVES AS ENT INHIBITORS FOR THE TREATMENT OF CANCERS, AND COMBINATION THEREOF WITH ADENOSINE RECEPTOR ANTAGONISTS” (ITEOS BELGIUM SA, priority 2020, published 2023):

Target: T1, hERG ion channel (Homo sapiens, UniProt Q12809)
T1 construct: Chinese Hamster Ovary cell lines stably expressing the full-length ion channel; expressed in transfected cells
Assay: hERG ion channel inhibition (Patchliner automated patch-clamp, CHO cells)
Assay type: cell-based
Conditions: whole-cell, room temperature, 6-point curve up to 100 µM
Experimental: The compounds were tested for inhibition of hERG ion channel. 6-Point concentration-response curves were generated on the Patchliner automated patch-clamp using serial dilutions from a maximum test concentration of 100 µM.
Compounds were solubilised to 33 mM in DMSO before dilution in HBPS to 100 µM. 6-Point concentration-response curves were generated using serial dilutions from the top test concentration. Electrophysiological recordings were made from a Chinese Hamster Ovary cell lines stably expressing the full-length ion channel. Single cell ionic currents were measured in whole-cell configuration at room temperature (21-23° C.) using a Patchliner (Nanion Technologies). The internal solution for hERG contained (mM): 120 KF, 20 KCl, 10 EGTA, 10 HEPES and was buffered to pH 7.3. The external solution (HEPES-buffered saline, HBPS) contained (mM): 138 NaCl, 4.5 KCl, 1.8 CaC12, 1.0 MgC12, 10 HEPES, 10 glucose, buffered to pH7.4. Cells were clamped at a holding potential of -80 mV before a depolarising step appropriate for the hERG channel. Currents were measured from the step and referenced to the holding current. Compounds were incubated for 90 seconds. Concentration-response curves were generated by cumulative addition of compound with concentrations low to high. In all cases, steady-state inhibition was achieved before the next concentration of compound was added.
IC50 values were obtained from a 4-parameter logistic fit of the concentration-response data: […]

T1 sequence (Q12809 whole entry): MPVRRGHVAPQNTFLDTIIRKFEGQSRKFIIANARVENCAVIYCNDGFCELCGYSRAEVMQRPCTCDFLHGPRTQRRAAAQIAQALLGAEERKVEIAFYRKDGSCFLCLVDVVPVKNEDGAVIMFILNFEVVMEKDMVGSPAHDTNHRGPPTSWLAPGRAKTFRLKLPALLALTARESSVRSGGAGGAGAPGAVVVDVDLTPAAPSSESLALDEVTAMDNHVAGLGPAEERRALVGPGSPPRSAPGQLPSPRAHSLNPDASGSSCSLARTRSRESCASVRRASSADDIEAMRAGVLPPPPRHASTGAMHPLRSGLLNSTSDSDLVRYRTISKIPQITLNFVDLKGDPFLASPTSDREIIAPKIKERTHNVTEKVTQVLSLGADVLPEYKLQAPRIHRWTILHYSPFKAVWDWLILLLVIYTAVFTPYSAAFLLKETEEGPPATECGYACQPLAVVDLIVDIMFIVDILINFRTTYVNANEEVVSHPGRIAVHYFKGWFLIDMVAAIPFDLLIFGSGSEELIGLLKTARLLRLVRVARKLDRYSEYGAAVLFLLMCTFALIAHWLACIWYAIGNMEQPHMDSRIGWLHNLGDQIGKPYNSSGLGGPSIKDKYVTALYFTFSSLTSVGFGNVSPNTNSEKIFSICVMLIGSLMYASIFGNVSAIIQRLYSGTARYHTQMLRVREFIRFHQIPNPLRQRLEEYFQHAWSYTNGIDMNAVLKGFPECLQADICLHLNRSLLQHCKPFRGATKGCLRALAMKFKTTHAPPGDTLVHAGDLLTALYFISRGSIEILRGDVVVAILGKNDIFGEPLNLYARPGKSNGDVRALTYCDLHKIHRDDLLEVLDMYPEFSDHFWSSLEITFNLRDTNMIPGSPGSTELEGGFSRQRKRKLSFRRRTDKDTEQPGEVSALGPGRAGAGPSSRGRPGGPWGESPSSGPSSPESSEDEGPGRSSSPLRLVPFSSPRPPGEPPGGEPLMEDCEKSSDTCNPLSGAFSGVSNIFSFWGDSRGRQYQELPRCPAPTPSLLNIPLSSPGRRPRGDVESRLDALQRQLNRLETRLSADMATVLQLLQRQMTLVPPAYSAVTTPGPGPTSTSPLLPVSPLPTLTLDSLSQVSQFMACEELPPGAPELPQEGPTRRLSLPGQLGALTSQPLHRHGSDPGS

## COc1cc(C(=O)O[C@H]2CCCOc3cc(cc(OC)c3OC)C(=O)OCCCN3CCCN(CC2)CC3)cc(OC)c1OC [Compound 2, (12S)-74,75-dimethoxy-6-oxo-5,8-dioxa-1(1,4)-diazepana-7(1,3)-benzenacyclotetradecaphane-12-yl 3,4,5-trimethoxybenzoate]
  IC50: 2.5 µM
